In patent publication US11034650B2, “Compounds useful for treating a Mannheimia haemolytica or Histophilus somni infection” (Intervet Inc., priority 2016, dated 2021):
≈ marks a conversion by molar mass, not a printed value.

Columns and labels:
Format in all cases: cell-based
[1] = system: Pasteurella multocida PM 6391 (ATCC 43137, reference strain); assay: MIC, broth-microdilution (CLSI VET01-A4), strain PM 6391; settings: Pasteurella multocida strain PM 6391, broth-microdilution; unit assumed
Protocol: For example, representative compounds were tested against ***, Mannheimia haemolytica and Pasteurella multocida, using the conventional broth-dilution assay.
The Minimum inhibitory concentrations (MIC) of compounds according to the invention for a number of veterinary bacterial pathogens were determined by the broth-microdilution method according to CLSI document VET01-A4.
Microdilution trays containing a doubling dilution series of the test compound were used for the tests. The MIC results were interpreted according to the CLSI documents VET01-S3. The lowest concentration of compound at which no visible growth (i.e. no turbidity) detected by the unaided eye was recorded as the MIC.

[2] = system: Pasteurella multocida PM 12080 (IV102277-0093, BRD field isolate); assay: MIC, broth-microdilution (CLSI VET01-A4), strain PM 12080; settings: Pasteurella multocida strain PM 12080, broth-microdilution; unit assumed
Method in brief: (§1)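 Compounds were serially diluted twofold in microdilution trays. Growth was judged by eye, and the MIC was the lowest concentration showing no turbidity. Results were interpreted per CLSI VET01-S3.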

[3] = system: Mannheimia haemolytica MH 6357 (M7/2, reference strain, cattle infection strain); assay: MIC, broth-microdilution (CLSI VET01-A4), strain MH 6357; settings: Mannheimia haemolytica strain MH 6357, broth-microdilution; unit assumed
Method in brief: as §1

[4] = system: Mannheimia haemolytica MH 10720 (154, BRD field isolate); assay: MIC, broth-microdilution (CLSI VET01-A4), strain MH 10720; settings: Mannheimia haemolytica strain MH 10720, broth-microdilution; unit assumed
Method in brief: as §1

[5] = system: Mannheimia haemolytica MH 12587 (1071, BRD field isolate, macrolide-resistance: erm+, E+); assay: MIC, broth-microdilution (CLSI VET01-A4), strain MH 12587; settings: Mannheimia haemolytica strain MH 12587, broth-microdilution; unit assumed
Method in brief: as §1

[6] = system: Mannheimia haemolytica MH 13065 (XB0446-6003.9, BRD field isolate); assay: MIC, broth-microdilution (CLSI VET01-A4), strain MH 13065; settings: Mannheimia haemolytica strain MH 13065, broth-microdilution; unit assumed
Method in brief: as §1

[7] = system: Pasteurella multocida PM 10775 (080130003051, BRD field isolate); assay: MIC, broth-microdilution (CLSI VET01-A4), strain PM 10775; settings: Pasteurella multocida strain PM 10775, broth-microdilution; unit assumed
Method in brief: as §1

[8] = system: Mannheimia haemolytica MH 6374 (ATCC 33396, reference strain); assay: MIC, broth-microdilution (CLSI VET01-A4), strain MH 6374; settings: Mannheimia haemolytica strain MH 6374, broth-microdilution; unit assumed
Method in brief: as §1

[9] = system: Pasteurella multocida PM 6267 (P 2225 (L386), reference strain, mouse infection strain); assay: MIC, broth-microdilution (CLSI VET01-A4), strain PM 6267; settings: Pasteurella multocida strain PM 6267, broth-microdilution; unit assumed
Method in brief: as §1

[10] = system: Mannheimia haemolytica MH 13093 (XB0472-6014.1, BRD field isolate); assay: MIC, broth-microdilution (CLSI VET01-A4), strain MH 13093; settings: Mannheimia haemolytica strain MH 13093, broth-microdilution; unit assumed
Method in brief: as §1

Compound | MIC PM 6391 [1] [µg/mL] | MIC PM 12080 [2] [µg/mL] | MIC PM 10775 [7] [µg/mL] | MIC PM 6267 [9] [µg/mL] | MIC MH 6357 [3] [µg/mL] | MIC MH 10720 [4] [µg/mL] | MIC MH 12587 [5] [µg/mL] | MIC MH 13065 [6] [µg/mL] | MIC MH 6374 [8] [µg/mL] | MIC MH 13093 [10] [µg/mL]
O=C(N[C@@H](CO)C(=O)NO)c1ccc(C#Cc2ccc(CNCc3cccnc3)cc2)cc1 [Compound 157] | 0.8 (≈ 1.8 µM) | 0.8 (≈ 1.8 µM) | ≤ 0.1 | 0.4 (≈ 0.9 µM) | 1.6 (≈ 3.6 µM) | 0.8 (≈ 1.8 µM) | 6.3 (≈ 14.2 µM) | 3.1 (≈ 6.97 µM) | 1.6 (≈ 3.6 µM) | 6.3 (≈ 14.2 µM)
O=C(N[C@@H](CO)C(=O)NO)c1ccc(C#Cc2ccc(CNCc3ccccn3)cc2)cc1 [Compound 158] | 0.8 (≈ 1.8 µM) | 0.8 (≈ 1.8 µM) | ≤ 0.1 | 0.4 (≈ 0.9 µM) | 1.6 (≈ 3.6 µM) | 0.8 (≈ 1.8 µM) | 6.3 (≈ 14.2 µM) | 6.3 (≈ 14.2 µM) | 3.1 (≈ 6.97 µM) | 6.3 (≈ 14.2 µM)
O=C(N[C@@H](CO)C(=O)NO)c1ccc(C#Cc2ccc(CNCc3ccco3)cc2)cc1 [Compound 159] | 0.8 (≈ 1.85 µM) | 0.4 (≈ 0.923 µM) | ≤ 0.1 | 0.2 (≈ 0.461 µM) | 1.6 (≈ 3.69 µM) | 0.4 (≈ 0.923 µM) | 3.1 (≈ 7.15 µM) | 3.1 (≈ 7.15 µM) | 1.6 (≈ 3.69 µM) | 3.1 (≈ 7.15 µM)
Cc1ccc(CNCc2ccc(C#Cc3ccc(C(=O)N[C@@H](CO)C(=O)NO)cc3)cc2)cc1 [Compound 161] | 0.8 (≈ 1.75 µM) | 0.2 (≈ 0.437 µM) | ≤ 0.1 | 0.2 (≈ 0.437 µM) | 1.6 (≈ 3.5 µM) | 0.8 (≈ 1.75 µM) | 6.3 (≈ 13.8 µM) | 3.1 (≈ 6.78 µM) | 1.6 (≈ 3.5 µM) | 6.3 (≈ 13.8 µM)
CC1CN(Cc2ccc(C#Cc3ccc(C(=O)N[C@H](C(=O)NO)C(C)C)cc3)cc2)CC(C)O1 (stereo partly shown) [Compound 165] | 0.2 (≈ 0.431 µM) | ≤ 0.1 | ≤ 0.1 | ≤ 0.1 | 6.3 (≈ 13.6 µM) | 3.1 (≈ 6.69 µM) | 25 (≈ 53.9 µM) | 12.5 (≈ 27 µM) | 12.5 (≈ 27 µM) | 12.5 (≈ 27 µM)

Continued, in another order:

MIC PM 6391 [1] [µg/mL] | MIC PM 12080 [2] [µg/mL] | MIC PM 10775 [7] [µg/mL] | MIC PM 6267 [9] [µg/mL] | Compound | MIC MH 6357 [3] [µg/mL] | MIC MH 10720 [4] [µg/mL] | MIC MH 12587 [5] [µg/mL] | MIC MH 13065 [6] [µg/mL] | MIC MH 6374 [8] [µg/mL] | MIC MH 13093 [10] [µg/mL]
0.4 (≈ 0.886 µM) | 0.4 (≈ 0.886 µM) | ≤ 0.1 | ≤ 0.1 | CC1CN(Cc2ccc(C#Cc3ccc(C(=O)N[C@@H](CO)C(=O)NO)cc3)cc2)CC(C)O1 (stereo partly shown) [Compound 155] | 12.5 (≈ 27.7 µM) | 1.6 (≈ 3.54 µM) | 25 (≈ 55.4 µM) | 12.5 (≈ 27.7 µM) | 12.5 (≈ 27.7 µM) | 25 (≈ 55.4 µM)
1.6 (≈ 3.8 µM) | 1.6 (≈ 3.8 µM) | ≤ 0.1 | 0.8 (≈ 1.9 µM) | O=C(N[C@@H](CO)C(=O)NO)c1ccc(C#Cc2ccc(CN3CCCCC3)cc2)cc1 [Compound 156] | 6.3 (≈ 14.9 µM) | 1.6 (≈ 3.8 µM) | 12.5 (≈ 29.7 µM) | 12.5 (≈ 29.7 µM) | 6.3 (≈ 14.9 µM) | 12.5 (≈ 29.7 µM)
0.4 (≈ 0.89 µM) | 0.2 (≈ 0.445 µM) | ≤ 0.1 | ≤ 0.1 | O=C(N[C@@H](CO)C(=O)NO)c1ccc(C#Cc2ccc(CNCc3cccs3)cc2)cc1 [Compound 160] | 0.8 (≈ 1.78 µM) | 0.4 (≈ 0.89 µM) | 3.1 (≈ 6.9 µM) | 1.6 (≈ 3.56 µM) | 0.8 (≈ 1.78 µM) | 3.1 (≈ 6.9 µM)
3.1 (≈ 7.09 µM) | 1.6 (≈ 3.66 µM) | ≤ 0.1 | 0.8 (≈ 1.83 µM) | O=C(N[C@@H](CO)C(=O)NO)c1ccc(C#Cc2ccc(CNCC3CCCO3)cc2)cc1 (stereo partly shown) [Compound 162] | 6.3 (≈ 14.4 µM) | 3.1 (≈ 7.09 µM) | 12.5 (≈ 28.6 µM) | 12.5 (≈ 28.6 µM) | 12.5 (≈ 28.6 µM) | 12.5 (≈ 28.6 µM)
1.6 (≈ 3.76 µM) | 1.6 (≈ 3.76 µM) | ≤ 0.1 | 0.4 (≈ 0.94 µM) | COCC(C)NCc1ccc(C#Cc2ccc(C(=O)N[C@@H](CO)C(=O)NO)cc2)cc1 (stereo partly shown) [Compound 164] | 6.3 (≈ 14.8 µM) | 1.6 (≈ 3.76 µM) | 25 (≈ 58.8 µM) | 12.5 (≈ 29.4 µM) | 12.5 (≈ 29.4 µM) | 25 (≈ 58.8 µM)
